One block for each compound: values may come before it.
Columns and labels:
[1] = Effect of temperature (and pH) on the stability of the solution (purity); format: physicochemical; conditions: 7% solution in water
[2] = Effect of concentration on the stability of the solution (purity over time); conditions: in water at 25° C.

Stability of the solution at a temperature higher than 40° C. and a pH lower than 3 or greater than 6 [1]: not stable | Purity at Day 3 ([2]; 0.01 wt %): 82.3% | Purity at Day 7 ([2]; 0.01 wt %): 71.2% | Purity at Day 14 ([2]; 0.01 wt %): 59.4% | Purity at Day 21 ([2]; 0.01 wt %): 50.4% | Purity at Day 28 ([2]; 0.01 wt %): 43.7% | Purity at hr 0 ([2]; 0.01 wt %): 97.1% | Purity at Day 3 ([2]; 0.1 wt %): 95.7% | Purity at Day 7 ([2]; 0.1 wt %): 93.6% | Purity at Day 14 ([2]; 0.1 wt %): 89.8% | Purity at Day 21 ([2]; 0.1 wt %): 84.4% | Purity at Day 28 ([2]; 0.1 wt %): 78.9% | Purity at hr 0 ([2]; 0.1 wt %): 97.2% | Purity at Day 3 ([2]; 1 wt %): 96.2% | Purity at Day 7 ([2]; 1 wt %): 95.2% | Purity at Day 14 ([2]; 1 wt %): 93.1% | Purity at Day 21 ([2]; 1 wt %): 91.5% | Purity at Day 28 ([2]; 1 wt %): 90.1% | Purity at hr 0 ([2]; 1 wt %): 97.3% | Purity at Day 3 ([2]; 3 wt %): 96.7% | Purity at Day 7 ([2]; 3 wt %): 96.3% | Purity at Day 14 ([2]; 3 wt %): 95.0% | Purity at Day 21 ([2]; 3 wt %): 94.1% | Purity at Day 28 ([2]; 3 wt %): 93.1% | Purity at hr 0 ([2]; 3 wt %): 97.3% | Purity at Day 3 ([2]; 5 wt %): 97.3% | Purity at Day 7 ([2]; 5 wt %): 97.1% | Purity at Day 14 ([2]; 5 wt %): 96.7% | Purity at Day 21 ([2]; 5 wt %): 96.2% | Purity at Day 28 ([2]; 5 wt %): 95.4% | Purity at hr 0 ([2]; 5 wt %): 97.5% | Purity at Day 3 ([2]; 7 wt %): 97.4% | Purity at Day 7 ([2]; 7 wt %): 97.3% | Purity at Day 14 ([2]; 7 wt %): 97.1% | Purity at Day 21 ([2]; 7 wt %): 96.6% | Purity at Day 28 ([2]; 7 wt %): 96.4% | Purity at hr 0 ([2]; 7 wt %): 97.6% | Purity at Day 3 ([2]; 8 wt %): 97.4% | Purity at Day 7 ([2]; 8 wt %): 97.2% | Purity at Day 14 ([2]; 8 wt %): 96.9% | Purity at Day 21 ([2]; 8 wt %): 96.8% | Purity at Day 28 ([2]; 8 wt %): 96.5% | Purity at hr 0 ([2]; 8 wt %): 97.5% | Purity at Day 3 ([2]; 10 wt %): 97.5% | Purity at Day 7 ([2]; 10 wt %): 97.3% | Purity at Day 14 ([2]; 10 wt %): 97.0% | Purity at Day 21 ([2]; 10 wt %): 97.0% | Purity at Day 28 ([2]; 10 wt %): 96.7% | Purity at hr 0 ([2]; 10 wt %): 97.5% | Purity at Day 3 ([2]; 15 wt %): 97.4% | Purity at Day 7 ([2]; 15 wt %): 97.4% | Purity at Day 14 ([2]; 15 wt %): 97.1% | Purity at Day 21 ([2]; 15 wt %): 97.1% | Purity at Day 28 ([2]; 15 wt %): 96.8% | Purity at hr 0 ([2]; 15 wt %): 97.6% | Purity at Day 3 ([2]; 20 wt %): 97.4% | Purity at Day 7 ([2]; 20 wt %): 97.6% | Purity at Day 14 ([2]; 20 wt %): 97.2% | Purity at Day 21 ([2]; 20 wt %): 97.1% | Purity at Day 28 ([2]; 20 wt %): 96.8% | Purity at hr 0 ([2]; 20 wt %): 97.6% | Purity at Day 3 ([2]; 30 wt %): 97.5% | Purity at Day 7 ([2]; 30 wt %): 97.5% | Purity at Day 14 ([2]; 30 wt %): 97.3% | Purity at Day 21 ([2]; 30 wt %): 97.0% | Purity at Day 28 ([2]; 30 wt %): 96.7% | Purity at hr 0 ([2]; 30 wt %): 97.7% | Purity at Day 3 ([2]; 50 wt %): 97.5% | Purity at Day 7 ([2]; 50 wt %): 97.5% | Purity at Day 14 ([2]; 50 wt %): 97.2% | Purity at Day 21 ([2]; 50 wt %): 96.8% | Purity at Day 28 ([2]; 50 wt %): 96.8% | Purity at hr 0 ([2]; 50 wt %): 97.7% | Stability when the concentration is 0.1% or lower [2]: not stable
SMILES: CCN(CC)CCOC(=O)CC1=C(C)C(=Cc2ccc([S+](C)[O-])cc2)c2ccc(F)cc21.Cl (stereo not shown) [2-(diethylamino)ethyl 5-fluoro-2-methyl-1-[[4-(methylsulfinyl)phenyl]methylene]-1H-indene-3-acetate•HCl]

Stability of the solution at a temperature higher than 40° C. and a pH lower than 3 or greater than 6 [1]: not stable | Purity at Day 3 ([2]; 0.01 wt %): 84.7% | Purity at Day 7 ([2]; 0.01 wt %): 73.9% | Purity at Day 14 ([2]; 0.01 wt %): 62.3% | Purity at Day 21 ([2]; 0.01 wt %): 52.9% | Purity at Day 28 ([2]; 0.01 wt %): 42.9% | Purity at hr 0 ([2]; 0.01 wt %): 97.8% | Purity at Day 3 ([2]; 0.1 wt %): 96.7% | Purity at Day 7 ([2]; 0.1 wt %): 95.5% | Purity at Day 14 ([2]; 0.1 wt %): 91.1% | Purity at Day 21 ([2]; 0.1 wt %): 87.2% | Purity at Day 28 ([2]; 0.1 wt %): 83.0% | Purity at hr 0 ([2]; 0.1 wt %): 97.9% | Purity at Day 3 ([2]; 1 wt %): 97.0% | Purity at Day 7 ([2]; 1 wt %): 96.0% | Purity at Day 14 ([2]; 1 wt %): 94.0% | Purity at Day 21 ([2]; 1 wt %): 92.3% | Purity at Day 28 ([2]; 1 wt %): 89.9% | Purity at hr 0 ([2]; 1 wt %): 98.1% | Purity at Day 3 ([2]; 3 wt %): 97.5% | Purity at Day 7 ([2]; 3 wt %): 97.0% | Purity at Day 14 ([2]; 3 wt %): 95.7% | Purity at Day 21 ([2]; 3 wt %): 94.3% | Purity at Day 28 ([2]; 3 wt %): 92.8% | Purity at hr 0 ([2]; 3 wt %): 98.3% | Purity at Day 3 ([2]; 5 wt %): 98.0% | Purity at Day 7 ([2]; 5 wt %): 97.9% | Purity at Day 14 ([2]; 5 wt %): 97.6% | Purity at Day 21 ([2]; 5 wt %): 97.0% | Purity at Day 28 ([2]; 5 wt %): 96.3% | Purity at hr 0 ([2]; 5 wt %): 98.5% | Purity at Day 3 ([2]; 7 wt %): 98.4% | Purity at Day 7 ([2]; 7 wt %): 98.2% | Purity at Day 14 ([2]; 7 wt %): 98.0% | Purity at Day 21 ([2]; 7 wt %): 97.8% | Purity at Day 28 ([2]; 7 wt %): 97.4% | Purity at hr 0 ([2]; 7 wt %): 98.6% | Purity at Day 3 ([2]; 8 wt %): 98.5% | Purity at Day 7 ([2]; 8 wt %): 98.3% | Purity at Day 14 ([2]; 8 wt %): 98.1% | Purity at Day 21 ([2]; 8 wt %): 97.8% | Purity at Day 28 ([2]; 8 wt %): 97.4% | Purity at hr 0 ([2]; 8 wt %): 98.6% | Purity at Day 3 ([2]; 10 wt %): 98.4% | Purity at Day 7 ([2]; 10 wt %): 98.3% | Purity at Day 14 ([2]; 10 wt %): 98.2% | Purity at Day 21 ([2]; 10 wt %): 97.7% | Purity at Day 28 ([2]; 10 wt %): 97.3% | Purity at hr 0 ([2]; 10 wt %): 98.5% | Purity at Day 3 ([2]; 15 wt %): 98.5% | Purity at Day 7 ([2]; 15 wt %): 98.3% | Purity at Day 14 ([2]; 15 wt %): 98.1% | Purity at Day 21 ([2]; 15 wt %): 97.7% | Purity at Day 28 ([2]; 15 wt %): 97.5% | Purity at hr 0 ([2]; 15 wt %): 98.6% | Purity at Day 3 ([2]; 20 wt %): 98.4% | Purity at Day 7 ([2]; 20 wt %): 98.3% | Purity at Day 14 ([2]; 20 wt %): 98.2% | Purity at Day 21 ([2]; 20 wt %): 97.8% | Purity at Day 28 ([2]; 20 wt %): 97.4% | Purity at hr 0 ([2]; 20 wt %): 98.5% | Purity at Day 3 ([2]; 30 wt %): 98.5% | Purity at Day 7 ([2]; 30 wt %): 98.3% | Purity at Day 14 ([2]; 30 wt %): 98.0% | Purity at Day 21 ([2]; 30 wt %): 97.7% | Purity at Day 28 ([2]; 30 wt %): 97.3% | Purity at hr 0 ([2]; 30 wt %): 98.6% | Purity at Day 3 ([2]; 50 wt %): 98.5% | Purity at Day 7 ([2]; 50 wt %): 98.3% | Purity at Day 14 ([2]; 50 wt %): 98.0% | Purity at Day 21 ([2]; 50 wt %): 97.9% | Purity at Day 28 ([2]; 50 wt %): 97.5% | Purity at hr 0 ([2]; 50 wt %): 98.5% | Stability when the concentration is 0.1% or lower [2]: not stable
SMILES: CCN(CC)CCOC(=O)C(C)c1ccc2oc(-c3ccc(Cl)cc3)nc2c1.Cl (stereo not shown) [2-(diethylamino)ethyl 2-[(4-chlorophenyl)-5-benzoxazole]propionate•HCl]
